Assay results as given in the supplement of paper PMC5844555.

What was measured:
Test in all cases: 3' UTR reporter interaction score (median-centred robust z-score of log2 firefly/Renilla activity); higher = less repression of the 3' UTR reporter
Conditions in all cases: HEK293T; 48 h
[1] = test system: EZH2
Method in brief: (§1)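 A firefly luc2P reporter carrying the gene's 3' UTR (100 ng), Renilla pRL-TK control (20 ng) and miRNA mimic (2.5 pmol) were co-transfected with DharmaFECT Duo into HEK293T cells plated at 10,000/well in 96-well plates. Luciferase activities were read 48 h post-transfection. The interaction score is the log firefly/Renilla ratio as a per-plate robust z-score from median and median absolute deviation, median-centred per miRNA, and more negative indicates interaction. Values are averages of at least two independent screens.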

[2] = test system: FBXW7
Method in brief: as §1

[3] = test system: PHOX2B
Method in brief: as §1

[4] = test system: MYT1L
Method in brief: as §1

[5] = test system: TP53
Method in brief: as §1

[6] = test system: MYB
Method in brief: as §1

[7] = test system: BRCA2
Method in brief: as §1

[8] = test system: RB1
Method in brief: as §1

[9] = test system: NOTCH1
Method in brief: as §1

[10] = test system: HRAS
Method in brief: as §1

[11] = test system: PHF6
Method in brief: as §1

[12] = test system: MYCN
Method in brief: as §1

[13] = test system: MYC
Method in brief: as §1

[14] = test system: ZEB2
Method in brief: as §1

Sequence	3' UTR reporter interaction score [1]	3' UTR reporter interaction score [2]	3' UTR reporter interaction score [3]	3' UTR reporter interaction score [4]	3' UTR reporter interaction score [5]	3' UTR reporter interaction score [6]	3' UTR reporter interaction score [7]	3' UTR reporter interaction score [8]	3' UTR reporter interaction score [9]	3' UTR reporter interaction score [10]	3' UTR reporter interaction score [11]	3' UTR reporter interaction score [12]	3' UTR reporter interaction score [13]	3' UTR reporter interaction score [14]
CUCUUGAGGGAAGCACUUUCUGUU	1.02	1.21	-0.0184	0.407	0.305	1.52	0.199	-0.331	-0.119	-0.664	-2.75	0.894	-0.277	-0.69
ACAGUCUGCUGAGGUUGGAGC	0.0759	-0.12	0.189	-0.4	-0.638	-0.0786	0.137	-1.36	0.0668	-0.732	0.259	0.116	-0.486	1.65
UGAUUGUCCAAACGCAAUUCU	-0.465	-0.0252	0.249	-0.829	-0.447	0.183	0.855	0.331	0.81	0.277	1.16	0.178	-2.91	0.494
AAACAAACAUGGUGCACUUCUUU	1.82	-0.367	0.00827	-1.89	-0.293	0.209	-0.147	1.09	0.581	-0.444	-1.41	0.437	0.601	-0.365
AGGUUACCCGAGCAACUUUGCA	-1.68	-1.16	2.07	2.75	-1.44	1.71	-1.98	2.97	0.652	-1.62	0.436	0.0957	-0.29	0.562
AGUGGUUUUACCCUAUGGUAG	0.908	-0.0104	1.56	1.52	-3.34	2.26	-2.62	1.79	-0.395	-0.669	1.32	0.551	0.603	-0.644
CAACGGAAUCCCAAAAGCAGCU	0.561	-0.229	-0.397	-1.32	-0.924	-0.0583	-0.135	0.747	0.629	0.275	-0.143	-0.12	0.282	0.375
AUUCUAAUUUCUCCACGUCUUUG	-4.24	-0.826	0.107	0.697	0.345	0.162	-0.103	-2.85	-0.432	0.632	-1.02	0.587	0.0131	-0.49
UAUACAAGGGCAAGCUCUCUGU	-0.739	0.144	0.912	0.075	-0.221	0.159	-0.0857	0.0344	-0.0974	0.186	0.0525	-1.08	0.32	-0.506
UAUGUGGGAUGGUAAACCGCUU	0.226	1.55	-0.0868	-2.09	-0.352	1.45	-0.81	0.217	0.24	-0.809	-0.864	0.212	0.022	2.77
AGCUACAUCUGGCUACUGGGUCUC	-0.0907	0.465	0.255	-0.398	0.614	-3.44	-0.144	-3.28	0.41	1.2	-0.555	1.39	0.941	-1.04
GAGGUUGUCCGUGGUGAGUUCG	-0.239	-1.94	0.511	0.00527	-0.45	0.0834	-0.325	-0.327	0.138	-0.768	-0.125	-0.211	-2.33	0.323
UUCACAGUGGCUAAGUUCUGC	-0.367	-3.31	0.845	0.34	-0.662	1.56	-0.687	0.0429	1.04	-1.25	0.752	0.736	-0.0656	0.787
CGCAUCCCCUAGGGCAUUGGUGU	0.639	-0.0954	0.221	-3.16	0.263	-0.38	0.625	-0.799	-1.34	1.06	-0.956	-0.239	0.19	-0.392
AUGAUCCAGGAACCUGCCUCU	1.23	1.33	-1.8	-2.69	-0.239	-0.332	0.796	-0.262	0.405	-0.133	-2.82	0.642	0.0276	-0.647
GACACGGGCGACAGCUGCGGCCC	-0.294	-0.302	-0.471	-0.281	0.243	0.262	-0.257	1.37	-0.641	0.13	1.16	-0.202	-0.271	0.917
CAGUGCAAUGAUGAAAGGGCAU	-0.471	0.958	-0.853	0.286	-0.295	-1.75	-0.463	1.03	0.857	-0.234	0.644	1.64	0.674	-0.474
AGCAGCAUUGUACAGGGCUAUCA	-1	-2.69	-0.507	-2.1	-0.509	-2.18	1.96	1.3	-0.476	0.106	1.3	0.215	0.869	1.43
CAAAGUGCCUCCCUUUAGAGUGU	-0.27	0.81	0.0452	-0.343	0.418	0.155	0.407	-0.937	0.00359	0.317	0.15	0.839	-0.351	-0.0865

Sequence	3' UTR reporter interaction score [1]	3' UTR reporter interaction score [2]	3' UTR reporter interaction score [3]	3' UTR reporter interaction score [4]	3' UTR reporter interaction score [5]	3' UTR reporter interaction score [6]	3' UTR reporter interaction score [7]	3' UTR reporter interaction score [8]	3' UTR reporter interaction score [9]	3' UTR reporter interaction score [10]	3' UTR reporter interaction score [11]	3' UTR reporter interaction score [12]	3' UTR reporter interaction score [13]	3' UTR reporter interaction score [14]
UGGAAGACUAGUGAUUUUGUUG	0.509	-0.892	0.182	-1.31	-1.48	0.454	-0.32	0.176	-0.0478	0.856	0.207	0.44	-0.317	-0.874
AGGCAGUGUAGUUAGCUGAUUGC	1.87	-0.242	-1.02	0.754	0.285	-4.27	0.647	0.138	-3.48	1.1	-2.27	-5.02	-1.05	-0.539
GCCUGCUGGGGUGGAACCUGG	-0.39	-0.733	0.0382	-0.443	-0.747	0.0969	0.403	1.37	-0.0223	-0.0157	0.254	-0.962	0.0868	0.26
UGGAAUGUAAAGAAGUAUGUA	-0.314	-2.71	0.106	-0.17	-1.46	0.679	0.327	0.684	-0.912	1.1	0.925	-0.505	0.479	0.551
CAGCAGCACACUGUGGUUUGU	-1.21	-2.99	0.464	-4.01	-0.308	-2.62	0.267	-0.141	-0.283	-1.05	1.13	-0.42	0.347	1.1
UCACAAUGCUGACACUCAAACUGCUGAC	0.195	0.257	0.242	0.647	-0.424	-0.419	-3.53	-0.143	-0.0831	-0.335	0.399	-0.126	0.447	-1.11
GUCCGCUCGGCGGUGGCCCA	0.465	-0.455	0.167	0.878	0.883	0.218	-0.044	-0.471	0.197	0.202	0.23	-0.651	-0.572	0.167
GUUCAAAUCCAGAUCUAUAAC	-0.256	1.03	1.14	-0.972	0.149	-0.548	0.0735	-0.538	-0.33	-0.14	-0.553	-0.012	-0.205	0.383
UAUGGCUUUUUAUUCCUAUGUGA	0.742	0.0824	-1.06	0.172	0.14	-0.0826	0.03	-0.178	-0.625	-0.268	0.879	0.776	-0.0719	0.676
CAAGUCACUAGUGGUUCCGUUUA	0.168	1.35	0.0612	-1.25	-0.393	-0.363	0.252	1.58	1.15	-1.48	-0.71	-0.0757	-1.07	1.99
CAAAGCGCUCCCCUUUAGAGGU	0.467	-0.27	0.264	-0.44	-0.173	-0.147	-0.715	-1.27	-0.101	1.33	1.12	-0.228	0.756	1.31
CUGGACUUGGAGUCAGAAGGCC	-1.01	-1.21	0.64	1.12	-0.688	1.36	-0.913	-0.493	-1.42	0.243	0.484	0.91	-0.585	1.96
GAUGAGCUCAUUGUAAUAUG	0.284	0.747	-0.674	1.26	0.29	0.0611	-0.641	0.134	-0.218	0.049	-0.609	0.201	-0.384	-1.1
UUCCCUUUGUCAUCCUAUGCCU	0.404	-1.78	-5.45	-0.655	-0.382	0.747	0.265	0.112	-0.728	-0.0998	2.55	0.146	-0.0967	0.832
AACGCACUUCCCUUUAGAGUGU	0.293	0.611	-0.209	1.01	-0.139	-0.0921	0.843	1.02	0.0977	-0.716	-1.36	0.243	-2.85	0.153
UCGGGGAUCAUCAUGUCACGAG	-0.077	0.568	0.234	-0.88	-0.0214	-0.226	0.268	1.06	-0.696	-0.912	1.52	-0.0751	-1.16	1.06
UAAGUGCUUCCAUGUUUGAGUGU	-0.327	0.795	0.566	-0.74	-0.124	-0.941	-0.334	0.167	0.935	0.22	-0.0188	0.678	-0.0168	1.47
UGGGCGUAUCUGUAUGCUA	-1.3	0.752	2.15	0.105	-0.0916	0.397	-0.638	-0.659	-2.02	-0.235	1.09	0.906	-0.549	2.53
AGUGACAUCACAUAUACGGCAGC	-0.788	-1.31	0.805	0.969	-0.15	0.233	-1.13	0.945	0.273	-0.649	0.28	0.321	-0.366	1.55
